ChEMBL document CHEMBL6134800, “Applications of innovative synthetic strategies in anticancer drug discovery: The driving force of new chemical reactions” (Bioorg Med Chem Lett, 2025)
Converted amounts (≈) assume the structure as drawn. Values belong to the compound of their own block, whether it stands above or below them.

Experiments:
[1] = tested on: BXPC-3; assay: Antiproliferative activity against human BXPC-3 cells assessed as reduction in cell growth incubated for 72 hrs by MTT assay; format: functional, cell-based; conditions: Homo sapiens, BXPC-3, 72 h
[2] = tested on: A549; assay: Cytotoxicity against human A549 cells assessed as reduction in cell growth by resazurin assay; format: functional, cell-based
[3] = tested on: Escherichia coli; assay: Antimicrobial activity against Escherichia coli assessed as reduction in microbial growth; format: functional, organism-based
[4] = tested on: Bacillus subtilis; assay: Antibacterial activity against Bacillus subtilis assessed as reduction in bacterial growth; format: functional, organism-based
[5] = tested on: HL-60; assay: Cytotoxicity against human HL-60 cells assessed as reduction in cell growth by resazurin assay; format: functional, cell-based
[6] = tested on: NIH3T3; assay: Cytotoxicity against mouse NIH/3T3 cells assessed as reduction in cell growth by resazurin assay; format: functional, cell-based
[7] = Cytotoxicity against human BEAS-2B cells assessed as reduction in cell viability by MTT assay; format: toxicity, cell-based
[8] = tested on: A549; assay: Cytotoxicity against human A549 cells assessed as reduction in cell viability by MTT assay; format: functional, cell-based
[9] = tested on: MCF7; assay: Cytotoxicity against human MCF7 cells assessed as reduction in cell viability by MTT assay; format: functional, cell-based
[10] = tested on: A549; assay: Antiproliferative activity against human A549 cells assessed as reduction in cell viability incubated for 24 hrs by MTT assay; format: functional, cell-based; conditions: A549, 24 h
[11] = tested on: HCT-116; assay: Antiproliferative activity against human HCT-116 cells assessed as reduction in cell viability incubated for 24 hrs by MTT assay; format: functional, cell-based; conditions: HCT-116, 24 h
[12] = tested on: HeLa; assay: Antiproliferative activity against human HeLa cells assessed as reduction in cell viability incubated for 24 hrs by MTT assay; format: functional, cell-based
[13] = tested on: HeLa; assay: Antiproliferative activity against human HeLa cells assessed as reduction in cell viability incubated for 48 hrs by MTT assay; format: functional, cell-based
[14] = tested on: HeLa; assay: Cytotoxicity against human HeLa cells assessed as reduction in cell viability incubated for 48 hrs by SRB assay; format: functional, cell-based
[15] = tested on: MDA-MB-231; assay: Cytotoxicity against human MDA-MB-231 cells assessed as reduction in cell viability incubated for 48 hrs by SRB assay; format: functional, cell-based; conditions: MDA-MB-231, 48 h
[16] = tested on: DU-145; assay: Cytotoxicity against human DU-145 cells assessed as reduction in cell viability incubated for 48 hrs by SRB assay; format: functional, cell-based; conditions: DU-145, 48 h
[17] = tested on: HepG2; assay: Cytotoxicity against human HepG2 cells assessed as reduction in cell viability incubated for 48 hrs by SRB assay; format: functional, cell-based; conditions: HepG2, 48 h
[18] = target: Cyclin-dependent kinases regulatory subunit 1/S-phase kinase-associated protein 2 (Homo sapiens) (UniProt P61024+Q13309); assay: Inhibition of SKP2/CKS1 (unknown origin) protein-protein interaction at 50 uM relative to control; format: protein assay
[19] = tested on: MCF7; assay: Growth inhibition of human MCF7 cells measured for 48 hrs by SRB assay; format: functional
[20] = Antioxidant activity assessed as hydroxyl radical scavenging activity; format: functional
[21] = Antioxidant activity assessed as DPPH radical scavenging activity; format: functional
[22] = tested on: A549; assay: Growth inhibition of human A549 cells measured for 48 hrs by SRB assay; format: functional
[23] = tested on: HepG2; assay: Growth inhibition of human HepG2 cells measured for 48 hrs by SRB assay; format: functional
[24] = tested on: PC-3; assay: Growth inhibition of human PC-3 cells measured for 48 hrs by SRB assay; format: functional

Sequence of Cyclin-dependent kinases regulatory subunit 1/S-phase kinase-associated protein 2 (Homo sapiens) (P61024 2-79 limits assumed): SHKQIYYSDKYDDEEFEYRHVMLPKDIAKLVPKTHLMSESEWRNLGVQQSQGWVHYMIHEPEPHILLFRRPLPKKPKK
Sequence of Cyclin-dependent kinases regulatory subunit 1/S-phase kinase-associated protein 2 (Homo sapiens) (Q13309 whole entry partner): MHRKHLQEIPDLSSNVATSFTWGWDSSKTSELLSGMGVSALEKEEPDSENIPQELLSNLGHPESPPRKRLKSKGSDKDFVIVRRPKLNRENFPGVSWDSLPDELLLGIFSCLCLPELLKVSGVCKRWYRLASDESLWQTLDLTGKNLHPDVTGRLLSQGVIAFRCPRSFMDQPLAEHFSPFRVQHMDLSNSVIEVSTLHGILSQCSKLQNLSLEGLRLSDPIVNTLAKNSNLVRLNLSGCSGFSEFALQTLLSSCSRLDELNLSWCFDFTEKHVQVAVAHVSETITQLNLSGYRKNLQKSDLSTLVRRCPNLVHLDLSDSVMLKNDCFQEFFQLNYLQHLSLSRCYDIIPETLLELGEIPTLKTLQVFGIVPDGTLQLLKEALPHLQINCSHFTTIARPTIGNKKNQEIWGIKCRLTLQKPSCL

SMILES: Cc1cc(C)cc(P(=O)(c2cc(C)cc(C)c2)C2C(C#N)=C(N)Oc3c(Br)cccc32)c1 (configuration not stated)
IC50 [2]: > 30 µM
IC50 [3]: > 10 µM
IC50 [4]: > 10 µM
IC50 [5]: 9.8 µM
IC50 [6]: > 30 µM

SMILES: O=NN(CCCl)C(=O)NCCCl [CARMUSTINE]
IC50 [7]: 6.52 µg/mL (≈ 30.5 µM)
IC50 [8]: 6.35 µg/mL (≈ 29.7 µM)
IC50 [9]: 9.34 µg/mL (≈ 43.6 µM)

SMILES: COc1ccc(C2c3ccccc3-c3nc(C)cc(C(F)(F)F)c32)cc1 (configuration not stated)
IC50 [10]: 12.3 µM
IC50 [11]: 14.9 µM
IC50 [12]: 6.65 µM

SMILES: COC(=O)c1nc2nc(Oc3ccccc3)c(C#N)c(-c3ccc([N+](=O)[O-])cc3)c2c(N)c1C(=O)OC
IC50 [7]: 51.3 µg/mL (≈ 103 µM)
IC50 [8]: 8.24 µg/mL (≈ 16.5 µM)
IC50 [9]: 7.57 µg/mL (≈ 15.2 µM)

SMILES: COC(=O)c1nc2nc(Oc3ccccc3)c(C#N)c(-c3cccc([N+](=O)[O-])c3)c2c(N)c1C(=O)OC
IC50 [7]: 4.09 µg/mL (≈ 8.19 µM)
IC50 [8]: 6.12 µg/mL (≈ 12.3 µM)
IC50 [9]: 1.48 µg/mL (≈ 2.96 µM)

SMILES: COc1cccc2c1C(=O)c1c(O)c3c(c(O)c1C2=O)C[C@@](O)(C(=O)CO)C[C@@H]3O[C@H]1C[C@H](N)[C@H](O)[C@H](C)O1.Cl [DOXORUBICIN HYDROCHLORIDE]
IC50 [14]: 12.6 µg/mL
IC50 [15]: 8.64 µg/mL
IC50 [16]: 3.82 µg/mL
IC50 [17]: 26.7 µg/mL

SMILES: CN[C@@H]1[C@@H](O)[C@@H](O[C@@H]2[C@@H](O)[C@H](O[C@H]3O[C@H](CN)CC[C@H]3N)[C@@H](N)C[C@H]2N)OC[C@]1(C)O [GENTAMICIN C1A]
IC50 [4]: 0.115 µM

More lines, now with the values ahead:

IC50 [1]: 3.1 µM
SMILES: Cc1ccc(C2NC(=O)n3c(cc4ccccc43)C23CC3)cc1 (racemic)

IC50 [13]: 26.7 µM
SMILES: Cc1nn(-c2ccccc2Cl)c(O)c1-c1ccccc1C1=Nc2ccccc2C1(C)C

IC50 [13]: 27.3 µM
SMILES: Cc1nn(-c2ccc(C#N)cc2)c(O)c1-c1ccccc1C1=Nc2ccccc2C1(C)C

inhibition [18]: 54%
SMILES: COc1ccc(N2C(=O)c3ccccc3C2Cc2cc(-c3c(OC)cc(OC)cc3OC)n3ncnc3n2)cc1 (configuration not stated)

GI50 [19]: < 10 µg/mL
IC50 [20]: 34.8 µM
IC50 [21]: 32.1 µM
GI50 [22]: < 10 µg/mL
GI50 [23]: < 10 µg/mL
GI50 [24]: < 10 µg/mL
SMILES: CCc1cc(C(=O)c2ccccc2Cl)c(NC(c2cccs2)c2c(O)ccc3ccccc23)s1 (configuration not stated)
